From patent US20170035011A1, “METHODS OF IMPROVING GERMINATION OF PLANT EMBRYOS” (WEYERHAEUSER NR COMPANY, priority 2015, published 2017) come the findings set out here.

The subject of one test is loblolly pine SE. Description: Development stage studies with palatinose in maltose and glucose media. As to conditions: standard maltose and glucose media. It counts as cell-based. From the text:
In loblolly pine SE studies, palatinose was initially used as a non-metabolizable sugar for supplementing osmotic level. […] When used as a part of liquid multiplication media its effect depended on the sugar moieties it was associated with, and its ratio with those moieties. When paired with maltose alone, growth was largely or completely halted depending on sugar ratio, whereas when used with glucose, growth was like control (maltose only).

Another test relates to loblolly pine embryos. Kind of test: Germination and germinant organ lengths of resulting embryos, Example 2. Type of test: in vivo.
The next test has as its system manufactured seed. Kind of test: Root initiation with palatinose in synthetic gametophyte of manufactured seed. Type of test: in vivo. The settings on record: palatinose from 0 to 40 g/l in 20 g/l increments; base sugar sucrose or glucose. The text has this:
The beneficial properties of palatinose are not limited to multiplication. The addition of palatinose to the synthetic gametophyte of manufactured seed has benefits for root initiation. […] This is true when the base sugar was sucrose or glucose.

Excerpt for loblolly pine embryos: As used herein, the term “germination” refers to a physiological process that results in the elongation and growth of a plant embryo organs (root, hypocotyls, cotyledons) and initiation of leaves (epicotyl by the shoot apex located at the base of the cotyledons) after 1 week in the dark followed by 6 weeks in a light room at room temperature.
As used herein, the term “category 1” germination is defined by presence of a minimum of a 3 mm root, and a tuft of at least 5 epicotyl leaves, each approximately 5 mm long.
“Category 2” germination is defined as for category 1, but where epicotyls leaf presence is observed, but not meeting the 5 leaves by 5 mm length specification.
Several parameters may be measured to determine the quality of the germinants, such as root, hypocotyl, longest cotyledon leaf length, and epicotyls leaf length. […]
The responses analyzed for this report are the weekly growth, embryos per d-frame, category 1 germination, and for category 1+2: germination, germinants per d-frame, root length, the hypocotyl length, and the epicotyl length.
The proportion responses are analyzed using a generalized linear model with a logit link and binomial distribution after categorizing as a 0/1 response. The continuous responses were analyzed with a mixed linear model after taking the log transformation to account for increasing variability with higher means. […]

Turning to `O=C(CO)[C@@H](O)[C@H](O)[C@H](O)CO[C@H]1O[C@H](CO)[C@@H](O)[C@H](O)[C@H]1O` [palatinose, 6-O-α-d-glucopyranosyl-D-fructose], the embryo formation entry with loblolly pine SE is given as “inhibited embryo formation”. Further, in the test on loblolly pine embryos (combining the outcomes of 3, 5, and 7 weeks of treatment), the “category 1 germination percentage” value was 9.1%. Besides, the root presence entry in the test on manufactured seed is on record as “root presence improved”.

`OC[C@H]1O[C@H](O[C@H]2O[C@H](CO)[C@@H](O)[C@H](O)[C@H]2O)[C@H](O)[C@@H](O)[C@@H]1O` [trehalose]: the “Category 1 germination” value with loblolly pine embryos (Table 7 comparison) is “no evidence that adding trehalose had an effect”.
